{"source": "patent US6835382B2", "about": "“Ii peptide therapeutics to enhance antigen presentation” (University of Massachusetts, priority 1996, dated 2004)", "key": {"[1]": {"target": "T1, murine E^d MHC class II allele (Mus musculus, UniProt P01904+P01915)", "T1 sequence (P01904 26-255)": "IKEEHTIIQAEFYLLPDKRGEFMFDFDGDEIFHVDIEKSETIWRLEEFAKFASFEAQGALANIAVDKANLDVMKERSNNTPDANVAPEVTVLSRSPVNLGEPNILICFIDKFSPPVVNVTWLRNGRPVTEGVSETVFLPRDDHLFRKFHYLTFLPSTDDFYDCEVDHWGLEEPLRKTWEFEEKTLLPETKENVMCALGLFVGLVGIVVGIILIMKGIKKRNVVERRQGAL", "T1 sequence (P01915 27-264 limits assumed)": "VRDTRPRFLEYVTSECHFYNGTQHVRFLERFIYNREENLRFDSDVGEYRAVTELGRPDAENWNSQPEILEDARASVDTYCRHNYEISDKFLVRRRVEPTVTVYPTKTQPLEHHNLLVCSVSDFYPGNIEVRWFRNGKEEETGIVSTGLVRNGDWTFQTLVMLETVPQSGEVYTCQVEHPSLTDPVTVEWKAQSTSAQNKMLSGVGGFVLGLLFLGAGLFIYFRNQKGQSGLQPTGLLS", "experiment": "simultaneous assay, E^d allele (A20 APC, G28.C9 T hybridoma, HEL106-116; HT-2 [3H]TdR readout)", "type": "cell-based", "parameters": "The A20 and CH27 B cell lymphoma lines express H-2^d and H-2^k alleles, respectively; endogenous in cells; host or cells: A20 B cell lymphoma (mitomycin C-treated or paraformaldehyde-fixed)", "outline": "(§1)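 Antigenic peptide, mitomycin C-treated APC, effector compound and allele-restricted T hybridoma cultured together for 24 h. Supernatant then transferred to interleukin-dependent HT-2 cells. T cell activation quantified as [3H]TdR uptake by HT-2 cells.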"}, "[2]": {"system": "murine E^k MHC class II allele", "experiment": "simultaneous assay, E^k allele (CH27 APC, TPc9.1 T hybridoma, THMCC82-103 or PGCC81-104)", "type": "cell-based", "outline": "as §1"}, "[3]": {"conditions": "Table 4, AE109 homolog 64 μM, supernatant 1:2"}, "[4]": {"conditions": "Table 16, AE peptide 4 μM, supernatant 1:8"}, "[5]": {"conditions": "Table 1, AE peptide 16 μM (second value), 0.4 μM HEL106-116, supernatant 1:4"}, "[6]": {"conditions": "Table 1, AE peptide 64 μM (first value), 0.4 μM HEL106-116, supernatant 1:4"}, "[7]": {"conditions": "Table 1, AE peptide 16 μM (second value), 0.075 μM THMCC82-103, supernatant 1:2"}, "[8]": {"conditions": "Table 1, AE peptide 64 μM (first value), 0.075 μM THMCC82-103, supernatant 1:2"}}, "note": "Non-standard residues stand in square brackets, D forms with d."}
{"substance": "Ac-Y D MKLPKSAK-NH2 [AE135]", "values": [{"measurement": "Times Baseline Response, E^d", "setting": "[1]; [3]", "value": 1.2}, {"measurement": "Times Baseline Response, E^k", "setting": "[2]; [3]", "value": 1.0}]}
{"substance": "Ac-Y E MKLPKSAK-NH2 [AE136]", "values": [{"measurement": "Times Baseline Response, E^d", "setting": "[1]; [3]", "value": 0.9}, {"measurement": "Times Baseline Response, E^k", "setting": "[2]; [3]", "value": 0.7}]}
{"substance": "Ac-Y F MKLPKSAK-NH2 [AE139]", "values": [{"measurement": "Times Baseline Response, E^d", "setting": "[1]; [3]", "value": 0.8}, {"measurement": "Times Baseline Response, E^k", "setting": "[2]; [3]", "value": 1.5}]}
{"substance": "Ac-Y H MKLPKSAK-NH2 [AE133]", "values": [{"measurement": "Times Baseline Response, E^d", "setting": "[1]; [3]", "value": 0.9}, {"measurement": "Times Baseline Response, E^k", "setting": "[2]; [3]", "value": 0.8}]}
{"substance": "Ac-Y K MKLPKSAK-NH2 [AE134]", "values": [{"measurement": "Times Baseline Response, E^d", "setting": "[1]; [3]", "value": 0.7}, {"measurement": "Times Baseline Response, E^d", "setting": "[1]; [4]", "value": 1.2}, {"measurement": "Times Baseline Response, E^k", "setting": "[2]; [3]", "value": 0.9}, {"measurement": "Times Baseline Response, E^k", "setting": "[2]; [4]", "value": 1.3}]}
{"substance": "Ac-Y L MKLPKSAK-NH2 [AE142]", "values": [{"measurement": "Times Baseline Response, E^d", "setting": "[1]; [3]", "value": 0.8}, {"measurement": "Times Baseline Response, E^k", "setting": "[2]; [3]", "value": 1.0}]}
{"substance": "Ac-Y M MKLPKSAK-NH2 [AE141]", "values": [{"measurement": "Times Baseline Response, E^d", "setting": "[1]; [3]", "value": 1.1}, {"measurement": "Times Baseline Response, E^k", "setting": "[2]; [3]", "value": 1.3}]}
{"substance": "Ac-Y N MKLPKSAK-NH2 [AE137]", "values": [{"measurement": "Times Baseline Response, E^d", "setting": "[1]; [3]", "value": 0.8}, {"measurement": "Times Baseline Response, E^k", "setting": "[2]; [3]", "value": 0.7}]}
{"substance": "Ac-Y Q MKLPKSAK-NH2 [AE138]", "values": [{"measurement": "Times Baseline Response, E^d", "setting": "[1]; [3]", "value": 0.7}, {"measurement": "Times Baseline Response, E^k", "setting": "[2]; [3]", "value": 0.8}]}
{"substance": "Ac-Y Y MKLPKSAK-NH2 [AE140]", "values": [{"measurement": "Times Baseline Response, E^d", "setting": "[1]; [3]", "value": 0.7}, {"measurement": "Times Baseline Response, E^k", "setting": "[2]; [3]", "value": 0.9}]}
{"substance": "Ac-YAMKLPKSAK-NH2 [AE121]", "values": [{"measurement": "Times Baseline Response, E^d", "setting": "[1]; [3]", "value": 1.1}, {"measurement": "Times Baseline Response, E^d", "setting": "[1]; Table 10, AE peptide 16 μM (second value), supernatant 1:2", "value": 1.9}, {"measurement": "Times Baseline Response, E^d", "setting": "[1]; Table 10, AE peptide 64 μM (first value), supernatant 1:2", "value": 2.7}, {"measurement": "Times Baseline Response, E^k", "setting": "[2]; [3]", "value": 1.0}, {"measurement": "Times Baseline Response, E^k", "setting": "[2]; Table 10, AE peptide 64 μM, supernatant 1:2 (first value)", "value": 21.6}, {"measurement": "Times Baseline Response, E^k", "setting": "[2]; Table 10, AE peptide 64 μM, supernatant 1:4 (second value)", "value": 19.7}]}
{"substance": "Ac-YRM-NH2 [AE118]", "values": [{"measurement": "Times Baseline Response, E^d", "setting": "[1]; [5]", "value": 0.6}, {"measurement": "Times Baseline Response, E^d", "setting": "[1]; [6]", "value": 1.0}, {"measurement": "Times Baseline Response, E^k", "setting": "[2]; [7]", "value": 3.0}, {"measurement": "Times Baseline Response, E^k", "setting": "[2]; [8]", "value": 5.6}]}
{"substance": "Ac-YRMK-NH2 [AE117]", "values": [{"measurement": "Times Baseline Response, E^d", "setting": "[1]; [5]", "value": 1.0}, {"measurement": "Times Baseline Response, E^d", "setting": "[1]; [6]", "value": 2.3}, {"measurement": "Times Baseline Response, E^k", "setting": "[2]; [7]", "value": 10.6}, {"measurement": "Times Baseline Response, E^k", "setting": "[2]; [8]", "value": 14.6}]}
{"substance": "Ac-YRMKL hydrP KSAK-NH2 (Ac-YRMKL[hydrP]KSAK-NH2) [AE143]", "values": [{"measurement": "Times Baseline Response, E^d", "setting": "[1]; Table 8, AE peptide 4 μM (third), supernatant 1:8", "value": 8.0}, {"measurement": "Times Baseline Response, E^d", "setting": "[1]; Table 8, AE peptide 16 μM (second), supernatant 1:8", "value": "19.6,"}, {"measurement": "Times Baseline Response, E^d", "setting": "[1]; Table 8, AE peptide 64 μM (first), supernatant 1:8", "value": "19.4,"}, {"measurement": "Times Baseline Response, E^k", "setting": "[2]; Table 8, AE peptide 4 μM (third), supernatant 1:4", "value": 0.98}, {"measurement": "Times Baseline Response, E^k", "setting": "[2]; Table 8, AE peptide 16 μM (second), supernatant 1:4", "value": "1.5,"}, {"measurement": "Times Baseline Response, E^k", "setting": "[2]; Table 8, AE peptide 64 μM (first), supernatant 1:4", "value": "4.2,"}]}
{"substance": "Ac-YRMKL-NH2 [AE116]", "values": [{"measurement": "Times Baseline Response, E^d", "setting": "[1]; [5]", "value": 2.1}, {"measurement": "Times Baseline Response, E^d", "setting": "[1]; [6]", "value": 7.1}, {"measurement": "Times Baseline Response, E^k", "setting": "[2]; [7]", "value": 3.2}, {"measurement": "Times Baseline Response, E^k", "setting": "[2]; [8]", "value": 15.5}]}
{"substance": "Ac-YRMKLP-NH2 [AE115]", "values": [{"measurement": "Times Baseline Response, E^d", "setting": "[1]; [5]", "value": 5.7}, {"measurement": "Times Baseline Response, E^d", "setting": "[1]; [6]", "value": 19.9}, {"measurement": "Times Baseline Response, E^k", "setting": "[2]; [7]", "value": 3.8}, {"measurement": "Times Baseline Response, E^k", "setting": "[2]; [8]", "value": 18.6}]}
{"substance": "Ac-YRMKLPK-NH2 [AE113]", "values": [{"measurement": "Times Baseline Response, E^d", "setting": "[1]; [5]", "value": 23.1}, {"measurement": "Times Baseline Response, E^d", "setting": "[1]; [6]", "value": 36.3}, {"measurement": "Times Baseline Response, Ed", "setting": "[1]; Table 3, AE peptide 64 μM, supernatant 1:4", "value": 12.3}, {"measurement": "Times Baseline Response, E^k", "setting": "[2]; [7]", "value": 6.7}, {"measurement": "Times Baseline Response, E^k", "setting": "[2]; [8]", "value": 15.5}, {"measurement": "Times Baseline Response, Ek", "setting": "[2]; Table 3, AE peptide 64 μM, supernatant 1:4, values reduced relative to E^d by a factor of 10", "value": 24.9}]}
